Molecular target: NLRP3 inflammasome (Homo sapiens, UniProt Q96P20)
Assay: IL-1β assay in IFN-γ-differentiated, LPS-primed, ATP-activated THP-1 cells (ELISA)
Format: cell-based
Conditions: 50 ng/mL LPS priming, 2.5 mM ATP activation, 2 hours
Method: Monocytic THP-1 cells (ATCC: TIB-202) are maintained in accordance with the provider's instructions in RPMI media (Life Technologies, Cat #A10491-01); RPMI is supplemented with 10% heat inactivated fetal bovine serum (Hyclone Cat #SH30396.03). The cells are differentiated into macrophages by the addition of 25 ng/mL IFN-7 (PeproTech, Cat #300-02-100UG) for 24 hours at 37° C./5% CO2. Media is exchanged with fresh media with no FBS, and the cells are treated with 50 ng/mL LPS (priming step) for 24 hours at 37° C./5% CO2 (LPS-EK: Invivogen, Cat #tlrl-peklps). Media is exchanged with fresh media with no FBS. The cells are plated at 40,000 cells per well in 384-well flat-bottom cell culture plates (Costar 3764) containing compounds (added in 1:1000) in a 1:3.16 serial dilution series in DMSO and are incubated for 30 minutes at 37° C./5% CO2. The NLRP3 inflammasome is activated with the addition of 2.5 mM ATP (Sigma Cat #A3377) and the cells are incubated for 2 hours at 37° C./5% CO2. At the end of the incubation period, 40 μL supernatant is removed, and […] are monitored using an ELISA (Human […], R&D systems, Cat #DY201) in accordance with the manufacturer's instructions.
The IC50 values are calculated from a plot of percentage of inhibition versus the inhibitor concentration by a logistics curve fit according to: Y=[Bottom+(Top−Bottom)]/(1+10^[(Log IC50−X)·Hill Slope], where Y is the % inhibition at the inhibitor concentration, X, “Bottom” is the lowest inhibition value, i.e. 0%, “Top” is the maximum inhibition value, i.e. 100%, and the “Hill Slope” describes the slope of the sigmoidal curve between the “Bottom” and “Top” values. The curve fitting was conducted with internally developed software.

NLRP3 inflammasome, sequence (Q96P20 whole entry): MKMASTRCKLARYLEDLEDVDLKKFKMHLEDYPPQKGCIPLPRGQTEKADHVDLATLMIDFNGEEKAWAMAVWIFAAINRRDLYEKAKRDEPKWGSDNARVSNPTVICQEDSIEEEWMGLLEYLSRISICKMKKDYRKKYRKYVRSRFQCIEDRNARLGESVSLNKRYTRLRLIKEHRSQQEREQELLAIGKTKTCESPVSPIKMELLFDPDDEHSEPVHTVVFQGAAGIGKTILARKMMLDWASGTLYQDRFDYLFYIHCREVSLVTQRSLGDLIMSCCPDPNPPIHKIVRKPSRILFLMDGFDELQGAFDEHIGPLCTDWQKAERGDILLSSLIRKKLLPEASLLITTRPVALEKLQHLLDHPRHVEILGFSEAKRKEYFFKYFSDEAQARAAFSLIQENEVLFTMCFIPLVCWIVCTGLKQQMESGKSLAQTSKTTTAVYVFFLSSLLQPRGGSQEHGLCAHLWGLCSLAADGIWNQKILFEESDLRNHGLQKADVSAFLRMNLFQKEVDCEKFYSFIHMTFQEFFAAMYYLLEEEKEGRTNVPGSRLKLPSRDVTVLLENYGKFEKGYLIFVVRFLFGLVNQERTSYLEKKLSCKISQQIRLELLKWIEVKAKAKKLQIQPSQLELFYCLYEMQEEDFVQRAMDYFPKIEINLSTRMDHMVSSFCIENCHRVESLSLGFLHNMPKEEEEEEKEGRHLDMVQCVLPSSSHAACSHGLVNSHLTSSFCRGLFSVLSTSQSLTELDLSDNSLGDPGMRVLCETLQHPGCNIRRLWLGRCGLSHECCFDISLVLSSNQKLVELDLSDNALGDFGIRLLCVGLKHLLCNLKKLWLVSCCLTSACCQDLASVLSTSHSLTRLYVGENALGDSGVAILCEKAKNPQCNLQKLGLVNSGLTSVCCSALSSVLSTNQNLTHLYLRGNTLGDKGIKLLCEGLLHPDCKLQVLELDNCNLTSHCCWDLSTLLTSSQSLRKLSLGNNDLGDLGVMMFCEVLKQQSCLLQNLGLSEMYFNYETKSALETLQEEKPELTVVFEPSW

Going from `COc1ccc(-c2nnc(NC3CCN(C)C3)c3ccccc23)cc1` (stereo not drawn) [Example 126, 4-(4-methoxyphenyl)-N-(1-methylpyrrolidin-3-yl)phthalazin-1-amine] to `COc1ccc(-c2nnc(NC3CCCN(CCF)C3)c3ccccc23)cc1` (stereo not drawn) [Example 141, N-(1-(2-fluoroethyl)piperidin-3-yl)-4-(4-methoxyphenyl)phthalazin-1-amine], the IC50 falls from 2.57 µM to 0.269 µM (9.6-fold).

`COc1ccc(-c2nnc(N[C@H]3CC[C@](O)(C(F)(F)F)CC3)c3ccccc23)cc1` [Example 128, trans-4-((4-(4-methoxyphenyl)phthalazin-1-yl)amino)-1-(trifluoromethyl)cyclohexan-1-ol] and `COc1ccc(-c2nnc(NC3CCCC(C)(O)C3)c3ccccc23)cc1` (stereo not drawn) [Example 137, 3-((4-(4-methoxyphenyl)phthalazin-1-yl)amino)-1-methylcyclohexan-1-ol] are within 1.5-fold of each other in IC50: 3.02 µM for the first, 3.8 µM for the second.

`COc1ccc(-c2nnc(NCC(C)N3CCCC3)c3ccccc23)cc1` (stereo not drawn) [Example 129, 4-(4-methoxyphenyl)-N-(2-(pyrrolidin-1-yl)propyl)phthalazin-1-amine] and `COc1ccc(-c2nnc(NCC3CCCCN3C)c3ccccc23)cc1` (stereo not drawn) [Example 130, 4-(4-methoxyphenyl)-N-((1-methylpiperidin-2-yl)methyl)phthalazin-1-amine] are within 1.5-fold of each other in IC50: 2.82 µM for the first, 3.89 µM for the second.

`COc1ccc(-c2nnc(NCC3(N4CCCC4)CC3)c3ccccc23)cc1` [Example 131, 4-(4-methoxyphenyl)-N-((1-(pyrrolidin-1-yl)cyclopropyl)methyl)phthalazin-1-amine] and `COc1ccc(-c2nnc(NC3(CN4CCC4)CC3)c3ccccc23)cc1` [Example 132, N-(1-(azetidin-1-ylmethyl)cyclopropyl)-4-(4-methoxyphenyl)phthalazin-1-amine] are within 1.5-fold of each other in IC50: 3.63 µM for the first, 3.89 µM for the second.

First: OC1CC2(C1)CC(Nc1nnc(-c3ccc(Cl)cc3)c3ccccc13)C2 (stereo not drawn) [Example 133, 6-((4-(4-chlorophenyl)phthalazin-1-yl)amino)spiro[3.3]heptan-2-ol]
Second: CC1(O)CCCC(Nc2nnc(-c3ccc(Cl)cc3)c3ccccc23)C1 (stereo not drawn) [Example 138, 3-((4-(4-chlorophenyl)phthalazin-1-yl)amino)-1-methylcyclohexan-1-ol]
The IC50 of the first is 2.4-fold lower: 0.468 µM for the first, 1.11 µM for the second. The first is the more potent here.

Going from `CO[C@H]1C[C@@H](Nc2nnc(-c3ccc(Cl)cc3)c3ccccc23)C1` [Example 134, 4-(4-chlorophenyl)-N-(cis-3-methoxycyclobutyl)phthalazin-1-amine] to `COC1(C)CC(Nc2nnc(-c3ccc(Cl)cc3)c3ccccc23)C1(C)C` (stereo not drawn) [Example 135, 4-(4-chlorophenyl)-N-(3-methoxy-2,2,3-trimethylcyclobutyl)phthalazin-1-amine], the IC50 rises from 2.29 µM to 4.57 µM (2-fold).

Compared with `CC12CCC(Nc3nnc(-c4ccc(Cl)cc4)c4ccccc34)(CO1)C2` (stereo not drawn) [Example 136, 4-(4-chlorophenyl)-N-(1-methyl-2-oxabicyclo[2.2.1]heptan-4-yl)phthalazin-1-amine], `FCCN1CCC(Nc2nnc(-c3ccc(Cl)cc3)c3ccccc23)C1` (stereo not drawn) [Example 143, 4-(4-chlorophenyl)-N-(1-(2-fluoroethyl)pyrrolidin-3-yl)phthalazin-1-amine] is 2.3-fold lower in IC50: 3.72 µM for the first, 1.59 µM for the second.

Going from `FC(F)CN1CCCC(Nc2nnc(-c3ccc(Cl)cc3)c3ccccc23)C1` (stereo not drawn) [Example 142, 4-(4-chlorophenyl)-N-(1-(2,2-difluoroethyl)piperidin-3-yl)phthalazin-1-amine] to `FC(F)(F)CN1CCCC(Nc2nnc(-c3ccc(Cl)cc3)c3ccccc23)C1` (stereo not drawn) [Example 147, 4-(4-chlorophenyl)-N-(1-(2,2,2-trifluoroethyl)piperidin-3-yl)phthalazin-1-amine], the IC50 rises from 0.195 µM to 1.48 µM (7.6-fold). The first is the more potent here.

Going from `Clc1ccc(-c2nnc(NC3CCCN(C4CCC4)C3)c3ccccc23)cc1` (stereo not drawn) [Example 145, 4-(4-chlorophenyl)-N-(1-cyclobutylpiperidin-3-yl)phthalazin-1-amine] to `Clc1ccc(-c2nnc(NC3CCCN(C4CCCC4)C3)c3ccccc23)cc1` (stereo not drawn) [Example 146, 4-(4-chlorophenyl)-N-(1-cyclopentylpiperidin-3-yl)phthalazin-1-amine], the IC50 falls from 0.132 µM to 0.056 µM (2.4-fold). The second is the more potent here.

From US20250340563A1, “FUSED PYRIDAZINE DERIVATIVES AS NLRP3 INHIBITORS” (Takeda Pharmaceutical Company Limited, priority 2022, published 2025)
